# Measured values: ChEMBL document CHEMBL3286240, “Inhibition of Enterococcus faecalis biofilm formation by highly active lactones and lactams analogues of rubrolides” (Eur J Med Chem, 2014)
# Columns and labels:
# Enterococcus faecalis [1] = assay: Antimicrobial activity against Enterococcus faecalis assessed as bacterial growth at 87.5 ug/ml after 20 hrs by microtiter plate assay; assay type: functional
# Enterococcus faecalis [2] = assay: Antimicrobial activity against Enterococcus faecalis assessed as bacterial growth at 43.8 ug/ml after 20 hrs by microtiter plate assay; assay type: functional
# Enterococcus faecalis [3] = assay: Antimicrobial activity against Enterococcus faecalis assessed as bacterial growth at 21.9 ug/ml after 20 hrs by microtiter plate assay; assay type: functional
# Enterococcus faecalis [4] = assay: Antimicrobial activity against Enterococcus faecalis assessed as bacterial growth at 10.9 ug/ml after 20 hrs by microtiter plate assay; assay type: functional
# Enterococcus faecalis [5] = assay: Antimicrobial activity against Enterococcus faecalis assessed as bacterial growth at 5.5 ug/ml after 20 hrs by microtiter plate assay; assay type: functional
# Enterococcus faecalis [6] = assay: Antimicrobial activity against Enterococcus faecalis assessed as bacterial growth at 2.73 ug/ml after 20 hrs by microtiter plate assay; assay type: functional
# Enterococcus faecalis [7] = assay: Antimicrobial activity against Enterococcus faecalis assessed as bacterial growth at 1.37 ug/ml after 20 hrs by microtiter plate assay; assay type: functional
# Enterococcus faecalis [8] = assay: Antimicrobial activity against Enterococcus faecalis assessed as bacterial growth at 0.68 ug/ml after 20 hrs by microtiter plate assay; assay type: functional
# Enterococcus faecalis [9] = assay: Antimicrobial activity against Enterococcus faecalis assessed as bacterial growth at 0.34 ug/ml after 20 hrs by microtiter plate assay; assay type: functional
# Enterococcus faecalis [10] = assay: Antimicrobial activity against Enterococcus faecalis assessed as bacterial growth at 0.17 ug/ml after 20 hrs by microtiter plate assay; assay type: functional
# Enterococcus faecalis [11] = assay: Antimicrobial activity against Enterococcus faecalis assessed as inhibition of biofilm formation after 20 hrs by crystal violet staining analysis; assay type: functional, organism-based
Compound,Activity (Enterococcus faecalis [1]) [%],Activity (Enterococcus faecalis [2]) [%],Activity (Enterococcus faecalis [3]) [%],Activity (Enterococcus faecalis [4]) [%],Activity (Enterococcus faecalis [5]) [%],Activity (Enterococcus faecalis [6]) [%],Activity (Enterococcus faecalis [7]) [%],Activity (Enterococcus faecalis [8]) [%],Activity (Enterococcus faecalis [9]) [%],Activity (Enterococcus faecalis [10]) [%],IC50 (Enterococcus faecalis [11]) [µg/mL]
COc1cccc(/C=C2\C(c3cc(Cl)ccc3OC)=C(Br)C(=O)N2CC(C)C)c1,56.3,33.5,30.1,20.8,33.7,8.1,-4.8,-6,-6.4,-9.4,3.26
COc1ccccc1C1=C(Br)C(=O)N(CC(C)C)C1(O)Cc1ccc(C(F)(F)F)cc1 (stereo not given),-24.6,-1.2,-7,22.7,18.1,8.4,3.4,11.3,1.7,1.9,–
COc1ccc(Br)cc1C1=C(Br)C(=O)O/C1=C\c1cccc(Cl)c1,72.1,38.8,34.8,18.4,14.9,16,14.4,4.8,0.8,7.2,6.91
COc1ccc(C)cc1C1=C(Br)C(=O)N(CC(C)C)C1(O)Cc1ccccc1Cl (stereo not given),86.4,63.4,46,43.8,41.6,35.4,19.1,-12.4,-15.6,-3.7,1.07
COc1ccc(C)cc1C1=C(Br)C(=O)N(CC(C)C)/C1=C/c1cccc(Cl)c1,81.4,38.4,31.8,19.4,10.5,5,1.4,1.4,6.8,0.4,59.3
COc1ccc(Br)cc1C1=C(Br)C(=O)N(CC(C)C)C1(O)Cc1ccc(Br)cc1 (stereo not given),42.4,28.1,15.8,10.4,8.4,8.9,3.2,6.3,10,-8,33.4
COc1ccc(Cl)cc1C1=C(Br)C(=O)N(CC(C)C)C1(O)Cc1ccccc1Br (stereo not given),78,53.9,38.4,36.7,32.4,30.2,19.3,-10.6,-1.9,-5.1,1.29
COc1ccc(Br)cc1C1=C(Br)C(=O)N(CC(C)C)/C1=C/c1cccc(Cl)c1,98.2,75.5,67.3,57.3,48.8,42.5,33,23.5,20.1,16.1,3.46
COc1ccc(Br)cc1C1=C(Br)C(=O)O/C1=C\c1ccc(Br)cc1,35.9,22.3,9.6,19.9,9.6,1.1,8.8,10.4,-0.3,0.8,18.7
COc1ccccc1C1=C(Br)C(=O)N(CC(C)C)/C1=C/c1ccc(C(F)(F)F)cc1,-18.9,17.5,15.8,11.1,9.2,10.9,1.6,2.3,0.4,3.3,2.96
COc1ccc(C)cc1C1=C(Br)C(=O)N(CC(C)C)C1(O)Cc1cccc(Cl)c1 (stereo not given),53.1,36.8,24.9,5.8,4.2,4.8,2.1,3.3,0.7,-2.5,> 87.5
COc1cccc(CC2(O)C(c3cc(Cl)ccc3OC)=C(Br)C(=O)N2CC(C)C)c1 (stereo not given),60.6,38.2,21.6,19.8,-8,9.5,3,4,1,-4,> 87.5
COc1cccc(/C=C2/C(c3cc(Cl)ccc3OC)=C(Br)C(=O)N2CC(C)C)c1,94.6,55.6,45.7,39.3,42.5,29.1,21,5.9,2.5,0.2,1.46
COc1ccc(C)cc1C1=C(Br)C(=O)N(CC(C)C)/C1=C/c1ccccc1Cl,82,58.8,46.9,36.1,36.6,27.8,15.7,-1,-1.8,-1.5,1.04
COc1ccccc1C1=C(Br)C(=O)N(CC(C)C)/C1=C\c1ccc(C(F)(F)F)cc1,45,11.2,4,-4.2,-8,-6.6,-5.2,-10.2,-10.4,-2.4,12
COc1ccc(Cl)cc1C1=C(Br)C(=O)O/C1=C\c1ccccc1Br,68.7,47,47.5,33.2,36.3,23.8,-0.8,-3.4,-4.7,0.8,> 87.5
COc1ccc(Br)cc1C1=C(Br)C(=O)N(CC(C)C)/C1=C\c1cccc(Cl)c1,94.2,26.3,20.4,20,21.8,27,25.1,17.9,12.1,9.3,3.31
COc1ccc(Cl)cc1C1=C(Br)C(=O)N(CC(C)C)/C1=C\c1ccccc1Br,100.8,70,61.5,53.3,35.1,44.9,45.1,19.2,0,-4.1,1.48
COc1ccc(Br)cc1C1=C(Br)C(=O)N(CC(C)C)/C1=C\c1ccc(Br)cc1,82.8,59.7,58.1,55.9,43,33.9,17.5,-1.3,0.3,-2.2,6.62
COc1ccccc1C1=C(Br)C(=O)O/C1=C\c1ccc(C(F)(F)F)cc1,66.5,46.3,26,15.2,7.1,-4.8,-7.6,-9.1,-6.7,-4.5,–
COc1ccc(Br)cc1C1=C(Br)C(=O)N(CC(C)C)/C1=C/c1ccc(Br)cc1,57.1,22.5,18.1,10.6,9.6,20.2,15.8,1.8,-4.4,0.8,3.35
COc1ccc(C)cc1C1=C(Br)C(=O)N(CC(C)C)/C1=C\c1cccc(Cl)c1,64.5,61.8,46.8,34.4,31.1,14.5,11.9,11.6,6.9,6,62.6
COc1ccc(C)cc1C1=C(Br)C(=O)O/C1=C\c1ccccc1Cl,63.8,28.8,18.2,5.1,19.1,19.9,27.1,33.9,29.9,21,–
